Laboratory results reported in PubChem BioAssay AID1918938 (Molecular Pharmacology Branch, DTP, NCI, 2023).

Tested on: 556581-035-R-J1-PDC complex spheroid viability
Assay: Anticancer human tumor 556581-035-R-J1-PDC patient-derived ovarian carcinoma cell line growth inhibition
Conditions: for IC50: curve of first compound; for viability, T/C: stronger effect = lower value; active = viability on the fitted dose curve at most 10% of control; inactive = the rest
How it was run: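 Drug combinations with the LSD1 inhibitor iadademstat tested on tumor cells co-cultured as spheroids with endothelial cells and mesenchymal stem cells. Concentrations descended in half-log increments from clinical Cmax or 10 microM.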

[1] = second compound 0.1 µM, first compound 0.0316 µM
[2] = second compound 0.1 µM, first compound 0.1 µM
[3] = second compound 0.316 µM, first compound 0.0316 µM
[4] = second compound 0.316 µM, first compound 0.1 µM
[5] = second compound 1 µM, first compound 0.0316 µM
[6] = second compound 1 µM, first compound 0.1 µM
[7] = second compound 3.16 µM, first compound 0.0316 µM
[8] = second compound 3.16 µM, first compound 0.1 µM
[9] = second compound 10 µM, first compound 0.0316 µM
[10] = second compound 10 µM, first compound 0.1 µM
[11] = second compound 0.1 µM, first compound 0.000949 µM
[12] = second compound 0.1 µM, first compound 0.003 µM
[13] = second compound 0.1 µM, first compound 0.00949 µM
[14] = second compound 0.1 µM, first compound 0.03 µM
[15] = second compound 0.1 µM, first compound 0.0949 µM
[16] = second compound 0.1 µM, first compound 0.3 µM
[17] = second compound 0.316 µM, first compound 0.000949 µM
[18] = second compound 0.316 µM, first compound 0.003 µM
[19] = second compound 0.316 µM, first compound 0.00949 µM
[20] = second compound 0.316 µM, first compound 0.03 µM
[21] = second compound 0.316 µM, first compound 0.0949 µM
[22] = second compound 0.316 µM, first compound 0.3 µM
[23] = second compound 1 µM, first compound 0.000949 µM
[24] = second compound 1 µM, first compound 0.003 µM
[25] = second compound 1 µM, first compound 0.00949 µM
[26] = second compound 1 µM, first compound 0.03 µM
[27] = second compound 1 µM, first compound 0.0949 µM
[28] = second compound 1 µM, first compound 0.3 µM
[29] = second compound 3.16 µM, first compound 0.000949 µM
[30] = second compound 3.16 µM, first compound 0.003 µM
[31] = second compound 3.16 µM, first compound 0.00949 µM
[32] = second compound 3.16 µM, first compound 0.03 µM
[33] = second compound 3.16 µM, first compound 0.0949 µM
[34] = second compound 3.16 µM, first compound 0.3 µM
[35] = second compound 10 µM, first compound 0.000949 µM
[36] = second compound 10 µM, first compound 0.003 µM
[37] = second compound 10 µM, first compound 0.00949 µM
[38] = second compound 10 µM, first compound 0.03 µM
[39] = second compound 10 µM, first compound 0.0949 µM
[40] = second compound 10 µM, first compound 0.3 µM
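Also: spheroids exposed to agents for seven days.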
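For viability, T/C in this document: 100% = DMSO vehicle control wells.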

CC[C@@]1(O)C(=O)OCc2c1cc1n(c2=O)Cc2cc3c(CN(C)C)c(O)ccc3nc2-1 + NC1CCC(NC2CC2c2ccccc2)CC1
13.9 nM: IC50 (second compound 0.316 µM)
active: viability, T/C [10] 7.41%
14.7 nM: IC50 (second compound 0.1 µM)
11.5 nM: IC50 (second compound 10 µM)
18.8 nM: IC50 (second compound 3.16 µM)
14.4 nM: IC50 (second compound 1 µM)
inactive: viability, T/C (second compound 0.1 µM, first compound 0.000316 µM) 78.7% | viability, T/C (second compound 0.1 µM, first compound 0.001 µM) 91.5% | viability, T/C (second compound 0.1 µM, first compound 0.00316 µM) 79% | viability, T/C (second compound 0.1 µM, first compound 0.01 µM) 57.6% | viability, T/C [1] 31.9% | viability, T/C [2] 9.52% | viability, T/C (second compound 0.316 µM, first compound 0.000316 µM) 91.4% | viability, T/C (second compound 0.316 µM, first compound 0.001 µM) 82.2% | viability, T/C (second compound 0.316 µM, first compound 0.00316 µM) 81.8% | viability, T/C (second compound 0.316 µM, first compound 0.01 µM) 55% | viability, T/C [3] 32.5% | viability, T/C [4] 13.3% | viability, T/C (second compound 1 µM, first compound 0.000316 µM) 79% | viability, T/C (second compound 1 µM, first compound 0.001 µM) 81.3% | viability, T/C (second compound 1 µM, first compound 0.00316 µM) 72.2% | viability, T/C (second compound 1 µM, first compound 0.01 µM) 58% | viability, T/C [5] 32.8% | viability, T/C [6] 10.1% | viability, T/C (second compound 3.16 µM, first compound 0.000316 µM) 72.5% | viability, T/C (second compound 3.16 µM, first compound 0.001 µM) 89.8% | viability, T/C (second compound 3.16 µM, first compound 0.00316 µM) 73.9% | viability, T/C (second compound 3.16 µM, first compound 0.01 µM) 63.8% | viability, T/C [7] 38.5% | viability, T/C [8] 10% | viability, T/C (second compound 10 µM, first compound 0.000316 µM) 64.4% | viability, T/C (second compound 10 µM, first compound 0.001 µM) 67.1% | viability, T/C (second compound 10 µM, first compound 0.00316 µM) 64.8% | viability, T/C (second compound 10 µM, first compound 0.01 µM) 51.8% | viability, T/C [9] 29.2%

CCc1c2c(nc3ccc(O)cc13)-c1cc3c(c(=O)n1C2)COC(=O)[C@]3(O)CC + NC1CCC(NC2CC2c2ccccc2)CC1
active: viability, T/C [12] 10.8% | viability, T/C [13] 2.17% | viability, T/C [14] 0.64% | viability, T/C [15] 0.13% | viability, T/C [16] 0.25% | viability, T/C [19] 3.03% | viability, T/C [20] 1.28% | viability, T/C [21] 0.23% | viability, T/C [22] 0.24% | viability, T/C [25] 2.69% | viability, T/C [26] 0.95% | viability, T/C [27] 1.3% | viability, T/C [28] 0.52% | viability, T/C [30] 10.9% | viability, T/C [31] 2.33% | viability, T/C [32] 0.37% | viability, T/C [33] 0.36% | viability, T/C [34] 0.53% | viability, T/C [36] 10.3% | viability, T/C [37] 2.5% | viability, T/C [38] 0.37% | viability, T/C [39] 0.19% | viability, T/C [40] 0.32%
< 0.949 nM: IC50 (second compound 0.1 µM) | IC50 (second compound 0.316 µM) | IC50 (second compound 1 µM) | IC50 (second compound 3.16 µM) | IC50 (second compound 10 µM)
inactive: viability, T/C [11] 20.5% | viability, T/C [17] 20.3% | viability, T/C [18] 12.4% | viability, T/C [23] 20.2% | viability, T/C [24] 13.4% | viability, T/C [29] 20.9% | viability, T/C [35] 20.1%

Nc1ccccc1NC(=O)c1ccc(CNC(=O)OCc2cccnc2)cc1 + NC1CCC(NC2CC2c2ccccc2)CC1
inactive: viability, T/C [13] 82.9% | viability, T/C [14] 74.9% | viability, T/C [15] 56.4% | viability, T/C [16] 28.5% | viability, T/C (second compound 0.1 µM, first compound 0.949 µM) 17.6% | viability, T/C [19] 77.4% | viability, T/C [20] 66.9% | viability, T/C [21] 53.4% | viability, T/C [22] 28.7% | viability, T/C (second compound 0.316 µM, first compound 0.949 µM) 15.9% | viability, T/C [25] 69% | viability, T/C [26] 71.6% | viability, T/C [27] 49.6% | viability, T/C [28] 32.1% | viability, T/C (second compound 1 µM, first compound 0.949 µM) 17.1% | viability, T/C [31] 79.5% | viability, T/C [32] 61.3% | viability, T/C [33] 47.6% | viability, T/C [34] 26.4% | viability, T/C (second compound 3.16 µM, first compound 0.949 µM) 18.2% | viability, T/C [37] 74% | viability, T/C [38] 49% | viability, T/C [39] 35.8% | viability, T/C [40] 17%
32.2 nM: IC50 (second compound 10 µM)
active: viability, T/C (second compound 0.1 µM, first compound 3 µM) 1.21% | viability, T/C (second compound 0.316 µM, first compound 3 µM) 1.67% | viability, T/C (second compound 1 µM, first compound 3 µM) 0.88% | viability, T/C (second compound 3.16 µM, first compound 3 µM) 1.11% | viability, T/C (second compound 10 µM, first compound 0.949 µM) 9.24% | viability, T/C (second compound 10 µM, first compound 3 µM) 0.63%
103 nM: IC50 (second compound 0.316 µM)
124 nM: IC50 (second compound 0.1 µM)
111 nM: IC50 (second compound 1 µM)
69.9 nM: IC50 (second compound 3.16 µM)

Nc1ccn(C2OC(CO)C(O)C2(F)F)c(=O)n1 (stereo not given) + NC1CCC(NC2CC2c2ccccc2)CC1
1.98 nM: IC50 (second compound 10 µM)
2.57 nM: IC50 (second compound 0.316 µM)
2.48 nM: IC50 (second compound 0.1 µM)
2.34 nM: IC50 (second compound 1 µM)
2.4 nM: IC50 (second compound 3.16 µM)
inactive: viability, T/C [11] 75.4% | viability, T/C [12] 44.4% | viability, T/C [13] 43.3% | viability, T/C [14] 39.6% | viability, T/C [15] 40.3% | viability, T/C [16] 36.5% | viability, T/C [17] 76.9% | viability, T/C [18] 45.8% | viability, T/C [19] 33.2% | viability, T/C [20] 36% | viability, T/C [21] 34.5% | viability, T/C [22] 34.1% | viability, T/C [23] 65.5% | viability, T/C [24] 48.3% | viability, T/C [25] 33.5% | viability, T/C [26] 42.7% | viability, T/C [27] 40.5% | viability, T/C [28] 37.8% | viability, T/C [29] 63% | viability, T/C [30] 46.3% | viability, T/C [31] 41.5% | viability, T/C [32] 42.8% | viability, T/C [33] 40.7% | viability, T/C [34] 36.1% | viability, T/C [35] 61.1% | viability, T/C [36] 44.9% | viability, T/C [37] 36.8% | viability, T/C [38] 42.2% | viability, T/C [39] 38.3% | viability, T/C [40] 42.7%

O=C(c1cc(Cc2n[nH]c(=O)c3ccccc23)ccc1F)N1CCN(C(=O)C2CC2)CC1 + NC1CCC(NC2CC2c2ccccc2)CC1
> 10000 nM: IC50 (second compound 0.1 µM) | IC50 (second compound 0.316 µM) | IC50 (second compound 1 µM) | IC50 (second compound 3.16 µM) | IC50 (second compound 10 µM)
inactive: viability, T/C [1] 85.8% | viability, T/C [2] 93.2% | viability, T/C (second compound 0.1 µM, first compound 0.316 µM) 91.7% | viability, T/C (second compound 0.1 µM, first compound 1 µM) 85.3% | viability, T/C (second compound 0.1 µM, first compound 3.16 µM) 83.9% | viability, T/C (second compound 0.1 µM, first compound 10 µM) 65% | viability, T/C [3] 87.2% | viability, T/C [4] 93.7% | viability, T/C (second compound 0.316 µM, first compound 0.316 µM) 90.7% | viability, T/C (second compound 0.316 µM, first compound 1 µM) 86% | viability, T/C (second compound 0.316 µM, first compound 3.16 µM) 62.8% | viability, T/C (second compound 0.316 µM, first compound 10 µM) 65.8% | viability, T/C [5] 77.4% | viability, T/C [6] 84.4% | viability, T/C (second compound 1 µM, first compound 0.316 µM) 83.6% | viability, T/C (second compound 1 µM, first compound 1 µM) 78.6% | viability, T/C (second compound 1 µM, first compound 3.16 µM) 72.6% | viability, T/C (second compound 1 µM, first compound 10 µM) 61.3% | viability, T/C [7] 74.5% | viability, T/C [8] 73.9% | viability, T/C (second compound 3.16 µM, first compound 0.316 µM) 77.6% | viability, T/C (second compound 3.16 µM, first compound 1 µM) 66.3% | viability, T/C (second compound 3.16 µM, first compound 3.16 µM) 58.1% | viability, T/C (second compound 3.16 µM, first compound 10 µM) 66.5% | viability, T/C [9] 74.2% | viability, T/C [10] 77.5% | viability, T/C (second compound 10 µM, first compound 0.316 µM) 69% | viability, T/C (second compound 10 µM, first compound 1 µM) 69.4% | viability, T/C (second compound 10 µM, first compound 3.16 µM) 58.7% | viability, T/C (second compound 10 µM, first compound 10 µM) 55.9%
